In patent US20260373119A1, “NOVEL COMPOUND, AND COMPOSITION FOR PREVENTING OR TREATING HER2-POSITIVE CANCER, COMPRISING SAME” (EWHA UNIVERSITY - INDUSTRY COLLABORATION FOUNDATION, priority 2022, published 2026):

How the values were obtained:
[1] = system: HeLa (HER2-negative cervical cancer cell line); test: antiproliferative effect, HeLa; format: cell-based; details: Homo sapiens, 72 hours
Description: (§1) The antiproliferative effects were measured after treating Compounds 1 to 22 for 72 hours on HCT15 (HER2-positive colorectal cancer cell line), NCI-N87 (HER2-positive gastric cancer cell line), T47D (HER2-negative breast cancer cell line), and HeLa (HER2-negative cervical cancer cell line). As a result, strong antiproliferative effects were generally observed in the NCI-N87 cell line (Table 2).
(§2) The antiproliferative effects of the candidate compound, resulting from HER2 inhibition, were evaluated. Specifically, to confirm the anticancer effects of the candidate compound, cancer cells were seeded at a density of 10^4 cells/well in a 96-well cell culture plate for 20 hours. The cells were starved in serum-free media for 4 hours, followed by replacement with media containing the compound at specified concentrations. The cells were then incubated for 72 hours under conditions of 5% CO2 at 37 °C. Cell viability was determined by adding 5 μL of EZ-CytoX to each well and measuring absorbance at 450 nm. The measurements were performed using an ELISA Microplate Reader (VersaMax, Molecular Devices).

TZMB-resistant cells = test: clonal analysis; format: cell-based; details: 14 days; TZMB 10 or 20 μg/mL, YK1 0.5 or 1 μM
Description: To validate the above results, clonal analysis was performed. […] The incubated cells were fixed with 100% methanol for 1 hour and then stained with 200 μL of crystal violet solution per well. After washing the cells with tap water, images were captured using a ChemiDoc bio-image analyzer (Bio-Rad), and quantification was performed with ImageJ software (NIH, Bethesda, MD, USA). All processes following the fixation were conducted at room temperature.

[2] = system: c-PARP, c-caspase 7, bcl-2; test: pro- and anti-apoptotic marker levels; format: cell-based
Description: For western blot analysis, cells were seeded in a 6-well plate and lysed in 1×RIPA lysis buffer (Cell Signaling, USA) containing 1% 0.1 M [COMPOUND LEFT OUT] and 1% 100× protease inhibitor cocktail solution (Genedepot, USA). Total protein levels were standardized using the Pierce™ BCA Protein Assay Kit (Thermo Fisher Scientific, USA) and a microplate reader (Tecan Group Ltd., Switzerland). A total of 20 μg of protein was loaded onto a 10-15% SDS-PAGE acrylamide gel and transferred to a 0.2 μm PVDF membrane (Pall Life Science, USA). The membrane was blocked with 5% skim milk or 5% BSA, and the membrane was cultured with primary antibodies (purchased from Thermo Fisher, Cell Signaling, Santa Cruz, Novus, or MBL) at room temperature for 3 hours or overnight at 4 °C. The blot was washed three times with Tris-buffered saline containing 0.1% Tween20 (1×TBST) and incubated with an HRP-conjugated secondary antibody (GeneTex, USA). Protein bands were detected using ECL solution reagents (GE Healthcare, USA) and the LAS-3000 imaging system (Fuji Photo Film Co., Ltd., Japan), and captured images were analyzed using Multi-Gauge software (Fuji Photo Film Co. Ltd.). […]
Specifically, 5×10^5 NCI-N87 cells were seeded in 60 mm dishes and cultured until they reached 70-80% confluence. […] Cell cycle analysis was performed using a fluorescence-activated cell sorting (FACS) device (BD Biosciences, USA).

c-RAF = c-RAF (Homo sapiens, UniProt P04049); test: kinase profiling, c-RAF; format: biochemical; details: read-out: In vitro kinase inhibitory activity (%)
c-RAF, sequence (P04049 whole entry): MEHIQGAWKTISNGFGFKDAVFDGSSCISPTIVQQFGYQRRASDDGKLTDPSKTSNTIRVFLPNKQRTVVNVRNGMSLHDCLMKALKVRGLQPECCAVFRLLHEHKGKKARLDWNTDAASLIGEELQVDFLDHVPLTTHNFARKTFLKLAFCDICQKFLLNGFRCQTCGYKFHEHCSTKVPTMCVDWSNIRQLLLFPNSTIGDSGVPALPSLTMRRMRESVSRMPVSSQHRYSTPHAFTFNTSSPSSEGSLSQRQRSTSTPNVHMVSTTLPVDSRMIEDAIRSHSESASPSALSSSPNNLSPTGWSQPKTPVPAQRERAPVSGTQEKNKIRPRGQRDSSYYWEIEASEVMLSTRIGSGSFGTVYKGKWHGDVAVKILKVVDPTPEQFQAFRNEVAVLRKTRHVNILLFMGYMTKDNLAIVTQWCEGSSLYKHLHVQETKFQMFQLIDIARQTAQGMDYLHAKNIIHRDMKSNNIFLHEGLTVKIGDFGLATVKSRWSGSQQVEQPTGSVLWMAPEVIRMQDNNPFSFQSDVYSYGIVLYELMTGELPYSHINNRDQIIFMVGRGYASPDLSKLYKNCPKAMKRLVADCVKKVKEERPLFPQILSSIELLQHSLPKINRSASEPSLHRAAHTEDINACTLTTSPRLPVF
Description: Kinase inhibitory activity of the candidate compound at 10 μM and 25 μM was assessed using Eurofins Kinase Profiling Services. Inhibitory effects on c-RAF, EGFR, ErbB2, ErbB4, and PI3 kinase were analyzed according to the Kinase Profiler Service Assay protocol.

HER2 protein = HER2 protein expression; format: cell-based; details: dose-dependent
Description: For western blot analysis, cells were seeded in a 6-well plate and lysed in 1×RIPA lysis buffer (Cell Signaling, USA) containing 1% 0.1 M [COMPOUND LEFT OUT] and 1% 100× protease inhibitor cocktail solution (Genedepot, USA). Total protein levels were standardized using the Pierce™ BCA Protein Assay Kit (Thermo Fisher Scientific, USA) and a microplate reader (Tecan Group Ltd., Switzerland). A total of 20 μg of protein was loaded onto a 10-15% SDS-PAGE acrylamide gel and transferred to a 0.2 μm PVDF membrane (Pall Life Science, USA). The membrane was blocked with 5% skim milk or 5% BSA, and the membrane was cultured with primary antibodies (purchased from Thermo Fisher, Cell Signaling, Santa Cruz, Novus, or MBL) at room temperature for 3 hours or overnight at 4 °C. The blot was washed three times with Tris-buffered saline containing 0.1% Tween20 (1×TBST) and incubated with an HRP-conjugated secondary antibody (GeneTex, USA). Protein bands were detected using ECL solution reagents (GE Healthcare, USA) and the LAS-3000 imaging system (Fuji Photo Film Co., Ltd., Japan), and captured images were analyzed using Multi-Gauge software (Fuji Photo Film Co. Ltd.). The preparation of cell lysates for subsequent analyses was performed using the same method as described for western blot analysis.

[3] = biological target: MED23 wild-type (FLAG-tagged) (Homo sapiens, UniProt Q9ULK4); test: LC-MS/MS protein-small molecule interaction, wild-type MED23; format: binding; details: FLAG pulldown, LC-MS/MS
MED23 wild-type (FLAG-tagged), sequence (Q9ULK4 whole entry): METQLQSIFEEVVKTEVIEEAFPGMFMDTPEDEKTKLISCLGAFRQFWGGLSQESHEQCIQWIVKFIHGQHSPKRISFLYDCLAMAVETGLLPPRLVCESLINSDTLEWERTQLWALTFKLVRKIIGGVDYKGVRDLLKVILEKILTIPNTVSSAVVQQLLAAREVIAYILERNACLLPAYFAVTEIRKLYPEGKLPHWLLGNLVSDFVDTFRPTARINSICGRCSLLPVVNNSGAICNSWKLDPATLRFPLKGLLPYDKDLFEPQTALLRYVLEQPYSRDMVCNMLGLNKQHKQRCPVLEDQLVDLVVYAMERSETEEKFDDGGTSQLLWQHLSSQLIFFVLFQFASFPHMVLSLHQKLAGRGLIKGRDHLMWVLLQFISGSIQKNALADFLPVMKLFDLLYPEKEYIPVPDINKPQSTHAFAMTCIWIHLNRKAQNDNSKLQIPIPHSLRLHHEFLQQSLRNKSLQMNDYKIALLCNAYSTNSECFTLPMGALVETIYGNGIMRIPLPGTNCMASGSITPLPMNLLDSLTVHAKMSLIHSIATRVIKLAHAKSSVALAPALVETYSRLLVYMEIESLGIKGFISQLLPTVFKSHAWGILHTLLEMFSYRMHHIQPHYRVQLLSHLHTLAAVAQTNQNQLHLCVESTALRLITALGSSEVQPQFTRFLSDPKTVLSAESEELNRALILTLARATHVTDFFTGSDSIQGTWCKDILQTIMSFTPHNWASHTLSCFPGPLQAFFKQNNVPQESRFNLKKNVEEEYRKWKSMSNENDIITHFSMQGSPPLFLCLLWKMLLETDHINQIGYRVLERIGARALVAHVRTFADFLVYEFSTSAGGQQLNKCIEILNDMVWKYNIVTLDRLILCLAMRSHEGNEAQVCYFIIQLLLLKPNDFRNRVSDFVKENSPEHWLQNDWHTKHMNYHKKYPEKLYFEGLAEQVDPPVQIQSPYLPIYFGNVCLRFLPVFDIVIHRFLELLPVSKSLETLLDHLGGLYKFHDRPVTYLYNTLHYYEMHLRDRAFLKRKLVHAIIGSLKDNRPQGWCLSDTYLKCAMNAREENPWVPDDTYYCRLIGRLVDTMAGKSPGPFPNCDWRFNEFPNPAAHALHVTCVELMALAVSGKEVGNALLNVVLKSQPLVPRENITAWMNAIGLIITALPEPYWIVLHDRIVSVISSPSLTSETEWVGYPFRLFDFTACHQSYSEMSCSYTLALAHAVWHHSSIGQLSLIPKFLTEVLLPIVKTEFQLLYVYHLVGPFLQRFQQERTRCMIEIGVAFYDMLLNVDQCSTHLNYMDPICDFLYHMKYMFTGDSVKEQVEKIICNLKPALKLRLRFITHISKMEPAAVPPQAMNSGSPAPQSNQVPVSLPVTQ
Description: HEK293 cells were seeded in a […] and incubated until they reached 70-80% confluency. The cells were transfected with p3Xflag-myc-CMV26-MED23^WT and p3Xflag-myc-CMV26-MED23^D400A/H449G plasmids for 24 hours, followed by lysis to obtain protein extracts. To isolate the candidate compound (YK1) bound to MED23, total lysates were incubated with YK1 for 4 hours and subsequently subjected to pulldown using FLAG-agarose beads (Sigma Aldrich, USA). The precipitated beads were washed at least three times to completely remove unbound compounds. To separate the candidate compound from the precipitated MED23, 50 μL of the sample was extracted with 1 mL of acetonitrile and centrifuged at 13,000 rpm at 4 °C for 10 minutes. The supernatant (1,000 μL) from each sample was transferred to a new tube and dried under nitrogen gas at 37 °C. For YK1 analysis, the residue was dissolved in 50 μL of ACN and vortexed for 10 minutes. […] The mixture was then extracted with 450 μL of ACN by ultrasonic treatment and vortex mixing. The candidate compound bound to MED23 was finally analyzed using an Agilent 6460 triple quadrupole mass spectrometer (Agilent Technologies, USA).

[4] = system: HCT15 (HER2-positive colorectal cancer cell line); test: antiproliferative effect, HCT15; format: cell-based; details: Homo sapiens, HCT-15, 72 hours
Description: as §1, §2

IC50 [1]: 16.92 ± 0.1 µM | inhibition at 10 µM (c-RAF; 10 μM): 3% | inhibition at 25 µM (c-RAF; 25 μM): 10% | binding to wild-type MED23 [3]: able to bind to wild-type MED23 | IC50 [4]: 7.66 ± 0.04 µM
SMILES: CC(=O)N1N=C(c2cccc(O)c2)CC1c1ccc(Cl)cc1 (stereo not drawn) [Compound 15, 1-[5-(4-Chlorophenyl)-3-(3-hydroxyphenyl)-4,5-dihydropyrazol-1-yl]-ethanone]
effect against TZMB resistance in clonal analysis (TZMB-resistant cells): effective against TZMB resistance | anti-apoptotic marker bcl-2 [2]: reduced the levels of the anti-apoptotic marker bcl-2 | pro-apoptotic markers c-PARP and c-caspase 7 [2]: induced an increase in the pro-apoptotic markers c-PARP and c-caspase 7 | HER2 protein expression level (HER2 protein): significantly downregulate HER2 gene and protein expression levels in a dose-dependent manner
